Data published in patent US12453709B2, “Compositions and methods for treating autism” (priority 2013, dated 2025).

Tested on: male patients diagnosed with autism
Assay: Study HT 02-121: Social Responsiveness Scale (SRS-2)
Format: in vivo, human
Conditions: for SRS-2 Total T-Score: patients changing category of severity: placebo 2; for SRS-2 DSM-5 Social, Communication and Interaction T-score: patients with changes in severity categorization / SRS-2 Social Communication T-score: patients with categorical improvement / SRS-2 Social Motivation T-score: patients with categorical changes in clinical severity: placebo 3
Protocol: This clinical study was a randomized double-blind, placebo-controlled two-cohort, 4-week dose-escalation study that incorporated two open-label treatment groups to assess the safety and efficacy of L1-79 100 mg and 200 mg TID in male patients between the ages of […] years of age diagnosed with autism. The first cohort of 20 patients was comprised of three groups of patients: The first group of five patients received open-label L1-79 100 mg TID and underwent PK and EKG assessments. The remaining two groups in this cohort consisted of 15 patients randomized on a 2:1 basis to receive L1-79 100 mg TID or placebo. The PK and safety data from the open-label L1-79 100 mg TID group was submitted to FDA for review and acceptance before the second cohort was enrolled. The second cohort was procedurally identical to the first. The second cohort of 20 patients was comprised of the same three groups of patients but a dose of 200 mg TID was used instead of 100 mg TID. The key inclusion criteria were as follows: (1) males between 13 and 21 years of age, (2) DSM-5 compliant diagnosis of autism spectrum disorder, confirmed by the Autistic Diagnosis Interview Review (ADIR), and by an ADOS-2 score consistent with a diagnosis of autism, (3) must have been stable on no more than one concomitant medication and no planned changes in psychosocial interventions during the study.
The primary efficacy endpoint was the determination of the clinical improvement by the investigator as documented by the Clinical Global Impression (CGI) rating scales. Additional efficacy endpoints included: (1) changes from baseline in the Socialization and Communication Domains of the Vineland Adaptive Behavior Scales, Second Edition (VABS II) parent/caregiver rating form, (2) changes from baseline in the ADOS-2 Total Score and subscores, (3) changes in the Social Responsiveness Scale, Second Edition (SRS-2) Total Score and subscales, (4) changes in the ABC-C domains, (5) changes in the Repetitive Behavior Scale-Revised (RBS-R) Total Score and subscales. Given the exploratory design of this study only descriptive statistics were planned.
In the preliminary study, all forms were completed at the study site in the presence of the investigator. In Cohort 1 of the present study, the VABS-II, SRS-2, ABC-C and RBS-R were filled out at home by the patient/patient's families prior to treatment visits and returned at treatment visits in order to expedite the execution of the study.
This definition is consistent with accepted standards for judging mid and long term outcomes for experimental treatments studied in nearly every disorder, including autism. […] In ASD, children often go through periods of mild to moderate improvement or worsening in their behavioral, social and emotional symptom regulation related to a variety of identifiable and as yet unidentified factors (Boso, 2010; Jyonouchi, 2011). Thus, in a study of short duration, a ‘baseline’ measure may in fact be at the apex, midpoint or nadir of one of these oscillations.
The Social Communication and Interaction scale are comprised of the DSM-5 criteria that make up the social communication and social interaction deficits required for the diagnosis of ASD.

CC(N)(Cc1ccc(O)cc1)C(=O)O (racemic) [L1-79, α-methyl-DL-tyrosine] was tested, and the “SRS-2 Total T-Score: patients changing category of severity” value (100 mg group) was 2 patients, the “SRS-2 DSM-5 Social, Communication and Interaction T-score: patients with changes in severity categorization” value (100 mg group) was 2 patients and the “SRS-2 Social Communication T-score: patients with categorical improvement” value (100 mg group) was 3 patients. For the same molecule, the “SRS-2 Social Motivation T-score: patients with categorical changes in clinical severity” value (100 mg group) was 4 patients, the “SRS-2 Total T-Score: patients changing category of severity” value (200 mg group) was 3 patients and the “SRS-2 DSM-5 Social, Communication and Interaction T-score: patients with changes in severity categorization” value (200 mg group) was 4 patients. For the same molecule, the “SRS-2 Social Communication T-score: patients with categorical improvement” value (200 mg group) was 4 patients, the “SRS-2 Social Motivation T-score: patients with categorical changes in clinical severity” value (200 mg group) was 6 patients and the “SRS-2 DSM-5 Restricted and Repetitive Behavior T-score Mean Change from Baseline” value (DB 100 mg TID, Week 4/LOCF) was −0.4. The “SRS-2 DSM-5 Restricted and Repetitive Behavior T-score Treatment effect versus placebo” value (DB 100 mg TID, Week 4/LOCF) was 7.2, the “SRS-2 DSM-5 Restricted and Repetitive Behavior T-score change, median” value (DB 100 mg TID, Week 4/LOCF) was −3, 0, 5 and the “SRS-2 DSM-5 Social, Communication and Interaction T-score Mean Change from Baseline” value (DB 100 mg TID, Week 4/LOCF) was 0.6. The “SRS-2 DSM-5 Social, Communication and Interaction T-score Treatment effect versus placebo” value (DB 100 mg TID, Week 4/LOCF) was 4.8, the “SRS-2 DSM-5 Social, Communication and Interaction T-score change, median” value (DB 100 mg TID, Week 4/LOCF) was −3, 2, 5 and the “SRS-2 Social Communication T-score Mean Change from Baseline” value (DB 100 mg TID, Week 4/LOCF) was 1.1. For the same molecule, the “SRS-2 Social Communication T-score Treatment effect versus placebo” value (DB 100 mg TID, Week 4/LOCF) was 6.0, the “SRS-2 Social Communication T-score change, median” value (DB 100 mg TID, Week 4/LOCF) was −5, 0, 6 and the “SRS-2 Social-Motivation T-score Mean Change from Baseline” value (DB 100 mg TID, Week 4/LOCF) was −1.4. For the same molecule, the “SRS-2 Social-Motivation T-score Treatment effect versus placebo” value (DB 100 mg TID, Week 4/LOCF) was 0.3, the “SRS-2 Social-Motivation T-score change, median” value (DB 100 mg TID, Week 4/LOCF) was −7, −4, 8 and the “SRS-2 Total T-score Mean Change from Baseline” value (DB 100 mg TID, Week 4/LOCF) was −0.4. The “SRS-2 Total T-score Treatment effect versus placebo” value (DB 100 mg TID, Week 4/LOCF) was 4.8, the “SRS-2 Total T-score change, median” value (DB 100 mg TID, Week 4/LOCF) was −3, −1, 3 and the “SRS-2 DSM-5 Restricted and Repetitive Behavior T-score Mean Change from Baseline” value (DB 200 mg TID, Week 4/LOCF) was −7.6. For the same molecule, the “SRS-2 DSM-5 Restricted and Repetitive Behavior T-score Treatment effect versus placebo” value (DB 200 mg TID, Week 4/LOCF) was −0.0, the “SRS-2 DSM-5 Restricted and Repetitive Behavior T-score change, median” value (DB 200 mg TID, Week 4/LOCF) was −22, −3, 3 and the “SRS-2 DSM-5 Social, Communication and Interaction T-score Mean Change from Baseline” value (DB 200 mg TID, Week 4/LOCF) was −7.6. For the same molecule, the “SRS-2 DSM-5 Social, Communication and Interaction T-score Treatment effect versus placebo” value (DB 200 mg TID, Week 4/LOCF) was −3.4, the “SRS-2 DSM-5 Social, Communication and Interaction T-score change, median” value (DB 200 mg TID, Week 4/LOCF) was −18, −3, 0 and the “SRS-2 Social Communication T-score Mean Change from Baseline” value (DB 200 mg TID, Week 4/LOCF) was −8.3. The “SRS-2 Social Communication T-score Treatment effect versus placebo” value (DB 200 mg TID, Week 4/LOCF) was −3.4, the “SRS-2 Social Communication T-score change, median” value (DB 200 mg TID, Week 4/LOCF) was −16, −4, −1 and the “SRS-2 Social-Motivation T-score Mean Change from Baseline” value (DB 200 mg TID, Week 4/LOCF) was −10.6. For the same molecule, the “SRS-2 Social-Motivation T-score Treatment effect versus placebo” value (DB 200 mg TID, Week 4/LOCF) was −8.9, the “SRS-2 Social-Motivation T-score change, median” value (DB 200 mg TID, Week 4/LOCF) was −21, −6, 0 and the “SRS-2 Total T-score Mean Change from Baseline” value (DB 200 mg TID, Week 4/LOCF) was −7.7. For the same molecule, the “SRS-2 Total T-score Treatment effect versus placebo” value (DB 200 mg TID, Week 4/LOCF) was −2.5, the “SRS-2 Total T-score change, median” value (DB 200 mg TID, Week 4/LOCF) was −19, 3, 0 and the “average improvement of SRS-2 Total, DSM-5 Social Communication and Interaction, Social Communication and Social Motivation T-scores” value (L1-79 200 mg treated group) was about 8 points. For the same molecule, the “SRS-2 T-scores: magnitude and number/percent of responders compared to placebo” value (L1-79 200 mg, Week 4/LOCF) was “greater”.
